Values quoted from earlier work, collected in patent US8741342B2, “Pharmaceutical compositions comprising entacapone, levodopa, and carbidopa” (Wockhardt Research Centre, priority 2006, dated 2014).

Settings: qualitative description in background section

Row | solubility in water | Structure (SMILES)
1 | slightly soluble in water | C[C@@](Cc1ccc(O)c(O)c1)(NN)C(=O)O [Carbidopa, (−)-L-(α-hydrazino-(α-methyl-β-(3,4-dihydroxybenzene)propanoic acid monohydrate]
2 | slightly soluble in water | N[C@@H](Cc1ccc(O)c(O)c1)C(=O)O [Levodopa, (−)-L-α-amino-β-(3,4-dihydroxybenzene)propanoic acid]
